From patent US9023789B2, “Amylin analogs and pharmaceutical compositions thereof” (Novo Nordisk A/S, priority 2012, dated 2015) come the findings set out here.

Structures are written as SMILES. Where two headings read alike, the source gives them in different places. Numbered stars: 1 amine (or outer) side, 2 acyl side, 3 side chain; on linkers, the order of the positions; unused ones are H or OH. Bridge positions count the residues as written; N and C are the ends. Side chains are listed from the residue outwards. Peptide text beside a SMILES is read from it. * marks the point of attachment. C20 diacid = O=C(O)CCCCCCCCCCCCCCCCCCC(=O)*; γGlu = O=C(O)[C@H](CCC(=O)[*:2])N[*:1]; AEEA = NCCOCCOCC(=O)O

The target of data set [1] is T1, human amylin 3(a) receptor (human calcitonin receptor + RAMP-3) in BHK570 cells (Homo sapiens, UniProt O60896+P30988).
T1 construct: expressed in transfected cells
The data set is described as follows: ASSAY (II)a functional assay, human amylin receptor (CRE luciferase). The data set is classed as cell-based. Particulars: for EC50: human amylin receptor functional potency, assay (II), read-out: hAmylin-R funct. EC50. The essentials:
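Read-out: CRE-driven luciferase luminescence, single photon counting, after 30 min at room temperature with LucLite. BHK cells expressed calcitonin receptor alone or with RAMP-3 (amylin 3(a)). Cells were stimulated 3 h at 37° C in DMEM, 10% FBS, 10 mM Hepes, pH 7.4.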

For data set [2], the target named is T2, human amylin receptor (membranes from Amylin 3(a)/CRE-luc cells) (Homo sapiens, UniProt O60896+P30988).
T2 construct: expressed in transfected cells
T2 sequence (P30988 25-474): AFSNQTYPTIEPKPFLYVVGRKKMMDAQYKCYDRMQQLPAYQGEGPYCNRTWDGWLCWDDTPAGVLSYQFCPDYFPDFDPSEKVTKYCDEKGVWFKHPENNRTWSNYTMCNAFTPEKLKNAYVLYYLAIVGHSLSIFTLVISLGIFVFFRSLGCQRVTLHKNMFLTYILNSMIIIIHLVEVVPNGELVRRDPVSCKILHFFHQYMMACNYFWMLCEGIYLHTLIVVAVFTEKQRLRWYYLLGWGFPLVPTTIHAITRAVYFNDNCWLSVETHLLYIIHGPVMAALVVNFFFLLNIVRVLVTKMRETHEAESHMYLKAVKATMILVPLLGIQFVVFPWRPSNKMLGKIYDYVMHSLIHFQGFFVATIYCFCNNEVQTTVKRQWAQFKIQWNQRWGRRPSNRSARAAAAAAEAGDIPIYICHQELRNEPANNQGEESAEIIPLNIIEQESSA
T2 sequence (O60896 24-148 partner): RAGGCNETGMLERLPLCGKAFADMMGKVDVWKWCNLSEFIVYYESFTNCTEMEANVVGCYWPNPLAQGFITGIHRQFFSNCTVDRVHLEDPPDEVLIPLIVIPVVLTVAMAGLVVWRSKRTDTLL
The data set is described as follows: ASSAY (V) binding to the human amylin receptor (SPA, 125I-rat amylin).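 As to all read-outs here: competition binding of cell membranes (35 ng/µL) mixed with SPA beads in 384-well plates at 40 µL total volume, read by scintillation counting.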 Particulars: for IC50: Table 4, read-out: hAmylin-R bind IC50.

Data set [3] can be described thus: ASSAY (IV) determination of solubility. The data set is classed as physicochemical. The method in brief:
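UPLC read-out of polypeptide concentration after centrifugation. Samples: aqueous polypeptide stock ([…]) + 100 mM buffer 1:1, glycylglycine pH 3.0–5.0 or bistrispropane pH 6.0–8.0; 18 h, RT.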

[4] abbreviates: hCTR funct. EC50 divided by hAmylin-R funct. EC50.
Where [5] appears, read: hCTR funct. EC50 over hAmylin-R funct. EC50.
[6] abbreviates: human functional selectivity: hCTR funct. EC50 / hAmylin-R funct. EC50.
The mark [7] stands for this setting: Table 5, selectivity, hCTR bind IC50 / hAmylin-R bind IC50.
[8] abbreviates: Table 5a, selectivity, hCTR bind IC50 / hAmylin-R bind IC50.
Setting [9] is: Table 7, human binding selectivity, included for comparison.
Setting [10] is: Table 7a (preferred compounds), human binding selectivity, included for comparison.
Where [11] appears, read: ratio of human calcitonin receptor binding IC50 to human amylin receptor binding IC50.
[12] abbreviates: bistrispropane buffer, pH 6.5, read-out: Solubility pH 6.5 Concentration.
[13] abbreviates: bistrispropane buffer, pH 7.5, read-out: Solubility pH 7.5 Concentration.
[14] abbreviates: bistrispropane buffer, pH 6.0, read-out: Solubility pH 6.0 Concentration.
The mark [15] stands for this setting: bistrispropane buffer, pH 7.0, read-out: Solubility pH 7.0 Concentration.
[16] abbreviates: bistrispropane buffer, pH 8.0, read-out: Solubility pH 8.0 Concentration.
Where [17] appears, read: glycylglycine buffer, pH 3.0, read-out: Solubility pH 3.0 Concentration.
Where [18] appears, read: glycylglycine buffer, pH 4.0, read-out: Solubility pH 4.0 Concentration.
Where [19] appears, read: glycylglycine buffer, pH 5.0, read-out: Solubility pH 5.0 Concentration.

In the case of `CC[C@H](C)[C@H](NC(=O)[C@H](C)NC(=O)CNC(=O)[C@H](Cc1ccccc1)NC(=O)[C@H](CC(N)=O)NC(=O)[C@@H]1CCCN1C(=O)[C@H](CO)NC(=O)[C@H](CO)NC(=O)[C@H](Cc1c[nH]cn1)NC(=O)[C@H](CCCNC(=N)N)NC(=O)[C@H](CC(C)C)NC(=O)[C@H](Cc1ccccc1)NC(=O)[C@H](Cc1c[nH]cn1)NC(=O)[C@H](C)NC(=O)[C@H](CC(C)C)NC(=O)[C@H](CCCNC(=N)N)NC(=O)[C@H](CCC(N)=O)NC(=O)[C@@H](NC(=O)[C@H](C)NC(=O)[C@@H]1CSSC[C@H](NC(=O)[C@@H](N)CCCCNC(=O)COCCOCCNC(=O)CC[C@H](NC(=O)CCCCCCCCCCCCCCCCCCC(=O)O)C(=O)O)C(=O)N[C@@H](CC(N)=O)C(=O)N[C@@H]([C@@H](C)O)C(=O)N[C@@H](C)C(=O)N[C@@H]([C@@H](C)O)C(=O)N1)[C@@H](C)O)C(=O)N1CCC[C@H]1C(=O)N[C@@H](CO)C(=O)N[C@@H](CO)C(=O)N[C@H](C(=O)N[C@@H](CC(N)=O)C(=O)N[C@H](C(=O)NCC(=O)N[C@@H](CO)C(=O)N[C@@H](CC(N)=O)C(=O)N[C@H](C(=O)N[C@@H](Cc1ccc(O)cc1)C(N)=O)[C@@H](C)O)C(C)C)[C@@H](C)O` [Example 69] (H-K([AEEA-γGlu-C20 diacid])CNTATCATQRLAHFLRHSSPNFGAIPSSTNVGSNTY-NH2; disulfide 2-7; N-terminus assumed), the “Ratio hCT/hAmylin funct.” value in data set [1] (setting [4]), in data set [1] (setting [5]) and in data set [1] (setting [6]) was 13.3 throughout. Further, the EC50 in data set [1] worked out at 0.094 nM. The IC50 in data set [2] is 0.133 nM. Moreover, the “Ratio hCT/hAmylin binding” value is 65.3 in data set [2] (setting [7]); 65.3 in data set [2] (setting [8]); 65.3 in data set [2] (Table 5b, selectivity, hCTR bind IC50 / hAmylin-R bind IC50); 65.3 in data set [2] (Table 5c, selectivity, hCTR bind IC50 / hAmylin-R bind IC50); 65.3 in data set [2] (setting [9]); 65.3 in data set [2] (setting [10]). The “Ratio hCT/hAmylin binding” value in data set [2] (setting [11]) was found to be 65.3. Moreover, the solubility at 18 h in data set [3] (setting [12]), in data set [3] (setting [13]), in data set [3] (setting [14]), in data set [3] (setting [15]), in data set [3] (setting [16]) and in data set [3] (setting [17]) was at least 200 µM each time. Moreover, the solubility at 18 h in data set [3] (setting [18]) and in data set [3] (setting [19]) was at least 200 µM throughout.
Turning to `CC[C@H](C)[C@H](NC(=O)[C@H](C)NC(=O)CNC(=O)[C@H](Cc1ccccc1)NC(=O)[C@H](CC(N)=O)NC(=O)[C@@H]1CCCN1C(=O)[C@H](CO)NC(=O)[C@H](CO)NC(=O)[C@H](Cc1c[nH]cn1)NC(=O)[C@H](CCCNC(=N)N)NC(=O)[C@H](CC(C)C)NC(=O)[C@H](Cc1ccccc1)NC(=O)[C@H](CC(N)=O)NC(=O)[C@H](C)NC(=O)[C@H](CC(C)C)NC(=O)[C@H](CCCNC(=N)N)NC(=O)[C@H](CCC(N)=O)NC(=O)[C@@H](NC(=O)[C@H](C)NC(=O)[C@@H]1CSSC[C@H](NC(=O)[C@H](CCCCN)NC(=O)CC[C@H](NC(=O)CCCCCCCCCCCCCCCCCCC(=O)O)C(=O)O)C(=O)N[C@@H](CC(N)=O)C(=O)N[C@@H]([C@@H](C)O)C(=O)N[C@@H](C)C(=O)N[C@@H]([C@@H](C)O)C(=O)N1)[C@@H](C)O)C(=O)N1CCC[C@H]1C(=O)N[C@@H](CO)C(=O)N[C@@H](CO)C(=O)N[C@H](C(=O)N[C@@H](CC(N)=O)C(=O)N[C@H](C(=O)NCC(=O)N1CCC[C@H]1C(=O)N[C@@H](CCC(=O)O)C(=O)N[C@H](C(=O)N[C@@H](Cc1ccc(O)cc1)C(N)=O)[C@@H](C)O)C(C)C)[C@@H](C)O` [Example 29] ({C20 diacid-γGlu}-KCNTATCATQRLANFLRHSSPNFGAIPSSTNVGPETY-NH2; disulfide 2-7), the “Ratio hCT/hAmylin funct.” value in data set [1] (setting [4]), in data set [1] (setting [5]) and in data set [1] (setting [6]) was 8.7 throughout. The “Ratio hCT/hAmylin binding” value in data set [2] (setting [7]), in data set [2] (setting [8]), in data set [2] (setting [9]), in data set [2] (setting [10]) and in data set [2] (setting [11]) was 13.9 throughout. Also, the solubility at 18 h in data set [3] (setting [12]), in data set [3] (setting [13]), in data set [3] (setting [14]), in data set [3] (setting [15]), in data set [3] (setting [16]) and in data set [3] (setting [17]) was at least 200 µM each time. In addition, the solubility at 18 h in data set [3] (setting [18]) and in data set [3] (setting [19]) was at least 200 µM throughout.
For the compound `CC[C@H](C)[C@H](NC(=O)[C@H](C)NC(=O)CNC(=O)[C@H](Cc1ccccc1)NC(=O)[C@H](CC(N)=O)NC(=O)[C@H](CCCCNC(=O)CC[C@H](NC(=O)CC[C@H](NC(=O)CCCCCCCCCCCCCCCCCCC(=O)O)C(=O)O)C(=O)O)NC(=O)[C@H](CO)NC(=O)[C@H](CO)NC(=O)[C@H](Cc1c[nH]cn1)NC(=O)[C@H](CCCNC(=N)N)NC(=O)[C@H](CC(C)C)NC(=O)[C@H](Cc1ccccc1)NC(=O)[C@H](CC(=O)O)NC(=O)[C@H](C)NC(=O)[C@H](CC(C)C)NC(=O)[C@H](CCCNC(=N)N)NC(=O)[C@H](CCC(N)=O)NC(=O)[C@@H](NC(=O)[C@H](C)NC(=O)[C@@H]1CSSC[C@H](NC(=O)[C@@H](N)CCCCN)C(=O)N[C@@H](CC(N)=O)C(=O)N[C@@H]([C@@H](C)O)C(=O)N[C@@H](C)C(=O)N[C@@H]([C@@H](C)O)C(=O)N1)[C@@H](C)O)C(=O)N1CCC[C@H]1C(=O)N[C@@H](CO)C(=O)N[C@@H](CO)C(=O)N[C@H](C(=O)N[C@@H](CC(N)=O)C(=O)N[C@H](C(=O)NCC(=O)N[C@@H](CO)C(=O)N[C@@H](CC(=O)O)C(=O)N[C@H](C(=O)N[C@@H](Cc1ccc(O)cc1)C(N)=O)[C@@H](C)O)C(C)C)[C@@H](C)O` [Example 59] (H-KCNTATCATQRLADFLRHSSK([γGlu-γGlu-C20 diacid])NFGAIPSSTNVGSDTY-NH2; disulfide 2-7; N-terminus assumed), the EC50 in data set [1] amounted to 0.389 nM. In data set [1] (setting [6]), the “Ratio hCT/hAmylin funct.” value is reported as 5.0. Further, the IC50 in data set [2] amounted to 1.19 nM. For the same compound, the “Ratio hCT/hAmylin binding” value in data set [2] (setting [7]), in data set [2] (setting [9]) and in data set [2] (setting [10]) was 4.3 each time. In addition, the solubility at 18 h in data set [3] (setting [12]), in data set [3] (setting [13]), in data set [3] (setting [14]), in data set [3] (setting [15]), in data set [3] (setting [16]) and in data set [3] (setting [17]) was at least 200 µM in each case. In addition, the solubility at 18 h in data set [3] (setting [18]) and in data set [3] (setting [19]) was at least 200 µM in each case.

Broadly, the EC50 is the midpoint of the concentration-response curve. As a reminder, the IC50 is the concentration that inhibits the measured activity by half.
